Results from patent US20120016009A1, “Optimized Methods For Delivery Of DSRNA Targeting The PCSK9 Gene” (priority 2008, published 2012).
In the oligonucleotide strings, read from the 5' end, every base follows the letter of its sugar. An asterisk marks phosphorothioate; unmarked linkages are phosphodiester. Other units and linkages are bracketed, terminal groups are in braces. A string of capitals states the bases alone. d = 2'-deoxy (DNA); m = 2'-O-methyl; r = 2'-OH (RNA)

Tested on: PCSK9 mRNA
Assay: PCSK9 siRNA screening in HepG2 cells (lipofectamine 2000 transfection, PCSK9 mRNA by Quantigene, normalized to GAP-DH)
Type: cell-based, human
Settings: 3 nM siRNA
Method: HuH-7 cells were obtained from JCRB Cell Bank (Japanese Collection of Research Bioresources) (Shinjuku, Japan, cat. No.: JCRB0403) Cells were cultured in Dulbecco's MEM (Biochrom AG, Berlin, Germany, cat. No. F0435) supplemented to contain 10% fetal calf serum (FCS) (Biochrom AG, Berlin, Germany, cat. No. S0115), Penicillin 100 U/ml, Streptomycin 100 μg/ml (Biochrom AG, Berlin, Germany, cat. No. A2213) and 2 mM L-Glutamin (Biochrom AG, Berlin, Germany, cat. No K0282) at 37° C. in an atmosphere with 5% CO2 in a humidified incubator (Heraeus HERAcell, Kendro Laboratory Products, Langenselbold, Germany) HepG2 and HeLa cells were obtained from American Type Culture Collection (Rockville, Md., cat. No. HB-8065) and cultured in MEM (Gibco Invitrogen, Karlsruhe, Germany, cat. No. 21090-022) supplemented to contain 10% fetal calf serum (FCS) (Biochrom AG, Berlin, Germany, cat. No. S0115), Penicillin 100 U/ml, Streptomycin 100 μg/ml (Biochrom AG, Berlin, Germany, cat. No. A2213), 1× Non Essential Amino Acids (Biochrom AG, Berlin, Germany, cat. No. K-0293), and 1 mM Sodium Pyruvate (Biochrom AG, Berlin, Germany, cat. No. L-0473) at 37° C. in an atmosphere with 5% CO2 in a humidified incubator (Heraeus HERAcell, Kendro Laboratory Products, Langenselbold, Germany).
For transfection with siRNA, HuH7, HepG2, or HeLa cells were seeded at a density of 2.0×10^4 cells/well in 96-well plates and transfected directly. Transfection of siRNA (30 nM for single dose screen) was carried out with lipofectamine 2000 (Invitrogen GmbH, Karlsruhe, Germany, cat. No. 11668-019) as described by the manufacturer.
24 hours after transfection HuH7 and HepG2 cells were lysed and PCSK9 mRNA levels were quantified with the Quantigene Explore Kit (Genosprectra, Dumbarton Circle Fremont, USA, cat. No. QG-000-02) according to the protocol. PCSK9 mRNA levels were normalized to GAP-DH mRNA. For each siRNA eight individual datapoints were collected. siRNA duplexes unrelated to PCSK9 gene were used as control. The activity of a given PCSK9 specific siRNA duplex was expressed as percent PCSK9 mRNA concentration in treated cells relative to PCSK9 mRNA concentration in cells treated with the control siRNA duplex.
Tables 1b and 2b (and FIG. 6A) summarize the results and provide examples of in vitro screens in different cell lines at different doses. Silencing of PCSK9 transcript was expressed as percentage of remaining transcript at a given dose.
Very active sequences are those that have less than 60% of transcript remaining after treatment with a dose less than or equal to 100 nM. Active sequences are those that have less than 90% transcript remaining after treatment with a high dose (100 nM).

Row | Substance | Mean percent remaining mRNA transcript at siRNA concentration/in cell type 3 nM/HepG2 [%]
1 | AD-9554: PCSK9 siRNA (sense rUrUrCrUrArGrArCrCrUrGrUrUrUrUrGrCrUrUdT*dT; antisense rArArGrCrArArArArCrArGrGrUrCrUrArGrArAdT*dT) | 24
2 | AD-9765: PCSK9 siRNA (sense rGmUrGmCmUrGrArGrGmCmCrAmCrGrArGrGmUmCdT*dT; antisense rGrArCrCrUrCrGrUrGrGrCrCrUmCrArGmCrArCdT*dT) | 74
3 | AD-9545: PCSK9 siRNA (sense rArGrUrCrArArGrGrArGrCrArUrGrGrArArUrCdT*dT; antisense rGrArUrUrCrCrArUrGrCrUrCrCrUrUrGrArCrUdT*dT) | 43
4 | AD-9752: PCSK9 siRNA (sense mUrGrArArGrAmUrAmUmUmUrAmUmUmCmUrGrGrGdT*dT; antisense rCrCmCrArGrArAmUrArArAmUrArUrCrUrUmCrAdT*dT) | 33

Same assay, conditions: 30 nM siRNA

Row | Substance | Mean percent remaining mRNA transcript at siRNA concentration/in cell type 30 nM/HepG2 [%]
5 | AD-9616: PCSK9 siRNA (sense rArGrCrArCrCrUrGrCrUrUrUrGrUrGrUrCrArCdT*dT; antisense rGrUrGrArCrArCrArArArGrCrArGrGrUrGrCrUdT*dT) | 84
6 | AD-9552: PCSK9 siRNA (sense rArGrGrArGrCrArUrGrGrArArUrCrCrCrGrGrCdT*dT; antisense rGrCrCrGrGrGrArUrUrCrCrArUrGrCrUrCrCrUdT*dT) | 80
7 | AD-9730: PCSK9 siRNA (sense mCmUmCrArGmCmCrArAmCmCmCrGmCmUmCmCrAmCdT*dT; antisense rGrUrGrGrArGrCrGrGrGrUrUrGrGrCrUrGrArGdT*dT) | 85
8 | AD-9732: PCSK9 siRNA (sense mUmCrGmUrGmCmUrGrGmUmCrAmCmCrGmCmUrGmCdT*dT; antisense rGmCrArGrCrGrGrUrGrArCmCrArGmCrArCrGrAdT*dT) | 105
9 | AD-9654: PCSK9 siRNA (sense mCrGrGmUrAmCmCrGrGrGmCrGrGrAmUrGrArAmUdT*dT; antisense rArUrUmCrArUrCrCrGrCrCrCrGrGmUrArCrCrGdT*dT) | 107
10 | AD-9554: PCSK9 siRNA (sense rUrUrCrUrArGrArCrCrUrGrUrUrUrUrGrCrUrUdT*dT; antisense rArArGrCrArArArArCrArGrGrUrCrUrArGrArAdT*dT) | 23
11 | AD-9647: PCSK9 siRNA (sense mCmUmCmCmUrArGrAmCrAmCmCrArGmCrAmUrAmCdT*dT; antisense rGmUrArUrGrCrUrGrGrUrGrUrCmUrArGrGrArGdT*dT) | 62
12 | AD-9666: PCSK9 siRNA (sense rArGrArGmUrGrAmCmCrAmCmCrGrGrGrArArAmUdT*dT; antisense rArUrUrUrCrCrCrGrGrUrGrGrUmCrArCrUrCrUdT*dT) | 81
13 | AD-9551: PCSK9 siRNA (sense UGGCGGGUGGGUACAGCCGTsT; antisense CGGCUGUACCCACCCGCCATsT; as printed in the source, key not given here) | 91
14 | AD-9686: PCSK9 siRNA (sense rGrArGmUmUmUrAmUmUmCrGrGrArArArArGmCmCdT*dT; antisense rGrGrCrUrUrUrUrCrCrGrArAmUrArArArCrUrCdT*dT) | 111
15 | AD-9706: PCSK9 siRNA (sense mCmCmUrGmCrGmCrGmUrGmCmUmCrArAmCmUrGmCdT*dT; antisense rGmCrArGrUrUrGrArGmCrArCrGrCrGmCrArGrGdT*dT) | 86
16 | AD-9716: PCSK9 siRNA (sense rAmCmCrArAmCmUmUmUrGrGmCmCrGmCmUrGmUrGdT*dT; antisense mCrAmCrArGrCrGrGrCmCrArArArGrUrUrGrGrUdT*dT) | 114
17 | AD-9560: PCSK9 siRNA (sense rGrArGrUrUrUrArUrUrCrGrGrArArArArGrCrCdT*dT; antisense rGrGrCrUrUrUrUrCrCrGrArArUrArArArCrUrCdT*dT) | 97
18 | AD-9678: PCSK9 siRNA (sense rArGrGrArGmCrAmUrGrGrArAmUmCmCmCrGrGmCdT*dT; antisense rGrCrCrGrGrGrArUrUrCmCrArUrGrCrUrCrCrUdT*dT) | 76
19 | AD-9681: PCSK9 siRNA (sense rGmUmCrArGrGrArGmCmCrGrGrGrAmCrGmUmCrAdT*dT; antisense rUrGrArCrGrUrCrCrCrGrGrCrUrCrCrUrGrArCdT*dT) | 55
20 | AD-9611: PCSK9 siRNA (sense rUrCrCrUrArGrArCrArCrCrArGrCrArUrArCrAdT*dT; antisense rUrGrUrArUrGrCrUrGrGrUrGrUrCrUrArGrGrAdT*dT) | 48
21 | AD-9750: PCSK9 siRNA (sense mCrGmUmCrArGmCmUmCmCrArGrGmCrGrGmUmCmCdT*dT; antisense rGrGrArCrCrGrCrCrUrGrGrArGrCrUrGrArCrGdT*dT) | 96
22 | AD-9751: PCSK9 siRNA (sense mCmUrGrGmUrGrGrArGrGmUrGmUrAmUmCmUmCmCdT*dT; antisense rGrGrArGrAmUrAmCrArCrCrUrCmCrArCmCrArGdT*dT) | 60
23 | AD-9727: PCSK9 siRNA (sense rArGrGrGmUmCrAmUrGrGmUmCrAmCmCrGrAmCmUdT*dT; antisense rArGrUrCrGrGrUrGrArCmCrArUrGrArCrCrCrUdT*dT) | 118
24 | AD-9621: PCSK9 siRNA (sense rUrCrUrGrGrArUrGrGrCrArUrCrUrArGrCrCrAdT*dT; antisense rUrGrGrCrUrArGrArUrGrCrCrArUrCrCrArGrAdT*dT) | 77
25 | AD-9614: PCSK9 siRNA (sense rGrGrCrArArCrUrUrCrCrGrGrGrArCrGrArUrGdT*dT; antisense rCrArUrCrGrUrCrCrCrGrGrArArGrUrUrGrCrCdT*dT) | 100
26 | AD-9728: PCSK9 siRNA (sense mCrArGmCrGrGmCmCrGrGrGrAmUrGmCmCrGrGmCdT*dT; antisense rGrCrCrGrGmCrArUrCrCrCrGrGrCrCrGrCrUrGdT*dT) | 94
27 | AD-9765: PCSK9 siRNA (sense rGmUrGmCmUrGrArGrGmCmCrAmCrGrArGrGmUmCdT*dT; antisense rGrArCrCrUrCrGrUrGrGrCrCrUmCrArGmCrArCdT*dT) | 82
28 | AD-9545: PCSK9 siRNA (sense rArGrUrCrArArGrGrArGrCrArUrGrGrArArUrCdT*dT; antisense rGrArUrUrCrCrArUrGrCrUrCrCrUrUrGrArCrUdT*dT) | 31
29 | AD-9759: PCSK9 siRNA (sense mUrGrGmUmCrAmCmCrGmCmUrGmCmCrGrGmCrArAdT*dT; antisense rUrUrGrCrCrGrGmCrArGrCrGrGrUrGrArCmCrAdT*dT) | 111
30 | AD-9747: PCSK9 siRNA (sense mUmCmUrGrGrAmUrGrGmCrAmUmCmUrArGmCmCrAdT*dT; antisense rUrGrGrCmUrArGrArUrGrCmCrArUrCmCrArGrAdT*dT) | 63
31 | AD-9752: PCSK9 siRNA (sense mUrGrArArGrAmUrAmUmUmUrAmUmUmCmUrGrGrGdT*dT; antisense rCrCmCrArGrArAmUrArArAmUrArUrCrUrUmCrAdT*dT) | 28
32 | AD-9532: PCSK9 siRNA (sense rCrCrGrGrGrCrCrCrArCrArArCrGrCrUrUrUrUdT*dT; antisense rArArArArGrCrGrUrUrGrUrGrGrGrCrCrCrGrGdT*dT) | 100

Same assay, conditions: 100 nM siRNA

Row | Substance | Mean percent remaining mRNA transcript at siRNA concentration/in cell type 100 nM/HepG2 [%]
33 | AD-9616: PCSK9 siRNA (sense rArGrCrArCrCrUrGrCrUrUrUrGrUrGrUrCrArCdT*dT; antisense rGrUrGrArCrArCrArArArGrCrArGrGrUrGrCrUdT*dT) | 74
